# In patent publication US20230270712A1, “NOBILETIN COMPOSITIONS AND METHODS FOR THE TREATMENT AND PREVENTION OF COVID-19 AND RELATED PATHOLOGIES” (CAS PROPERTIES, LLC, priority 2020, published 2023):
# Like-named read-outs stand apart in the source and are kept apart here.
# Key:
# [1] = target: COX-2 (Homo sapiens, UniProt P35354); conditions: cited from earlier work
# [2] = tested on: hepatitis C virus; conditions: cited from earlier work
# [3] = tested on: 5′ adenosine monophosphate-activated protein kinase (AMPK); conditions: cited from earlier work
# [4] = target: MMP-9 (Homo sapiens, UniProt P14780); conditions: cited from earlier work
# Chain of MMP-9 (P14780 94-707, species assumed): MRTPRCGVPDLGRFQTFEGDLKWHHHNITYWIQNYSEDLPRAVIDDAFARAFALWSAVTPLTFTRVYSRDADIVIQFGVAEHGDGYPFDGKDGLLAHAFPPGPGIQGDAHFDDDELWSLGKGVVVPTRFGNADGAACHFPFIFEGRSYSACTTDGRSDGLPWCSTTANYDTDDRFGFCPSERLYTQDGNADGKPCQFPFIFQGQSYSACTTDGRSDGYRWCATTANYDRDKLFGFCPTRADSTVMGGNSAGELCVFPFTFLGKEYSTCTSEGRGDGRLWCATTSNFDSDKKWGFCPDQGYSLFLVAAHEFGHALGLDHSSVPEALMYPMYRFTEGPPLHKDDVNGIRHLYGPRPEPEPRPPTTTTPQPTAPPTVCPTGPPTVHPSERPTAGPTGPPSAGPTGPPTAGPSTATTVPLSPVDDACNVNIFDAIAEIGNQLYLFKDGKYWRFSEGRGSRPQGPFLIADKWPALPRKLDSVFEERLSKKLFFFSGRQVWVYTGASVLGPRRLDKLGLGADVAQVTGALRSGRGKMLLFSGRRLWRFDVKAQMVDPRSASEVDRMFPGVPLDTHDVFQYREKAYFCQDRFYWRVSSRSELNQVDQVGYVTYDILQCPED
# [5] = tested on: IL1-β; conditions: cited from earlier work
# [6] = tested on: TNF-α; conditions: cited from earlier work
# [7] = tested on: toll-like receptor (TLR) 2+TLR4; conditions: cited from earlier work
# [8] = tested on: chikungunya (CHIKV); conditions: cited from earlier work
# [9] = target: MMP-2 (Homo sapiens, UniProt P08253); conditions: cited from earlier work
# Chain of MMP-2 (P08253 110-660, species assumed): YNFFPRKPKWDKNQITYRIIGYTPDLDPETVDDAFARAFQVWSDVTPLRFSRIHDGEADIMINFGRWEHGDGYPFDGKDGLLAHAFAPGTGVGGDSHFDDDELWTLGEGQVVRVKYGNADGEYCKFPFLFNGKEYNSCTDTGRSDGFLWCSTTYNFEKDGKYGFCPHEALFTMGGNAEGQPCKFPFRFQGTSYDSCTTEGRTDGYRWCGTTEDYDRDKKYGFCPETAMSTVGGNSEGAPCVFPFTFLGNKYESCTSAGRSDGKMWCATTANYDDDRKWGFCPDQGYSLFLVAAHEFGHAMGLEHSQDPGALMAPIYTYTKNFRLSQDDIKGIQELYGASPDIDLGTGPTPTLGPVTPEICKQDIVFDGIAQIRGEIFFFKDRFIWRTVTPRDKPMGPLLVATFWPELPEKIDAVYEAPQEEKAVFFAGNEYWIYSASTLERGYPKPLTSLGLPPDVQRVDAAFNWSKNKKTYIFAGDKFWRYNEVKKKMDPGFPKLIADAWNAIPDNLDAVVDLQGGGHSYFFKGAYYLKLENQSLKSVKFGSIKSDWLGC
# [10] = tested on: MCP-1; conditions: cited from earlier work
# [11] = tested on: leukocyte infiltration into inflamed tissue; conditions: in vivo; cited from earlier work
# [12] = target: MMP-3 (Homo sapiens, UniProt P08254); conditions: cited from earlier work
# Chain of MMP-3 (P08254 100-477, species assumed): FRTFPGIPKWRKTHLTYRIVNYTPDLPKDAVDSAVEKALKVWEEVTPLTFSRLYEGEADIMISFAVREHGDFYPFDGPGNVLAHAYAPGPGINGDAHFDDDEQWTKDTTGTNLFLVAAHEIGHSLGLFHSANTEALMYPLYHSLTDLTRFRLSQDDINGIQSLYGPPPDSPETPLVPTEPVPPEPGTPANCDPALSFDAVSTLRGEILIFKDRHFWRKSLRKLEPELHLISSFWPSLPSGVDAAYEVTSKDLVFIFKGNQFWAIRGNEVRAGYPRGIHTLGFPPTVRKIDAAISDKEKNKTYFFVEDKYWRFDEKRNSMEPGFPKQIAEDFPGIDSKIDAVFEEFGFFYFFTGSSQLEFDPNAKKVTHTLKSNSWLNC
# [13] = bioavailability and tissue penetration; conditions: in vivo
# [14] = tested on: platelet aggregation; conditions: cited from earlier work
# [15] = tested on: IL-6; conditions: cited from earlier work
# [16] = tested on: natural killer (NK) cells; conditions: cited from earlier work
# [17] = target: MMP-1 (Homo sapiens, UniProt P03956); conditions: cited from earlier work
# Chain of MMP-1 (P03956 100-469, species assumed): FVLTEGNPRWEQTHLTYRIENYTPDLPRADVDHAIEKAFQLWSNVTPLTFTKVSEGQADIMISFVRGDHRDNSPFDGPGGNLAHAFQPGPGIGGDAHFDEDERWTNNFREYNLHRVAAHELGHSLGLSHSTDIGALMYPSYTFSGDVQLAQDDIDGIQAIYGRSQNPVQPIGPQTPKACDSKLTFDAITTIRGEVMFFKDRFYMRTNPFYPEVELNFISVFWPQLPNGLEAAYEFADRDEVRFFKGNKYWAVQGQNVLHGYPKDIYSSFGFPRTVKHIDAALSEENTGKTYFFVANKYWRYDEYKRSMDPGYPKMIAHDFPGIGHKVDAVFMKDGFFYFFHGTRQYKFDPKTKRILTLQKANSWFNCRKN
# [18] = tested on: IL1-α; conditions: cited from earlier work
# [19] = tested on: enterovirus 71; conditions: cited from earlier work
# [20] = tested on: lung function; experiment: lung function in subjects having severe pneumonia; assay type: in vivo; conditions: including from COVID-19
# [21] = tested on: induced lung damage; conditions: acute lung injury research model, dose-dependent; cited from earlier work
# [22] = in vivo; cited from earlier work
# [23] = tested on: TIMP-1; conditions: cited from earlier work
# [24] = higher concentration of nobiletin
# Chain of COX-2 (P35354 18-604): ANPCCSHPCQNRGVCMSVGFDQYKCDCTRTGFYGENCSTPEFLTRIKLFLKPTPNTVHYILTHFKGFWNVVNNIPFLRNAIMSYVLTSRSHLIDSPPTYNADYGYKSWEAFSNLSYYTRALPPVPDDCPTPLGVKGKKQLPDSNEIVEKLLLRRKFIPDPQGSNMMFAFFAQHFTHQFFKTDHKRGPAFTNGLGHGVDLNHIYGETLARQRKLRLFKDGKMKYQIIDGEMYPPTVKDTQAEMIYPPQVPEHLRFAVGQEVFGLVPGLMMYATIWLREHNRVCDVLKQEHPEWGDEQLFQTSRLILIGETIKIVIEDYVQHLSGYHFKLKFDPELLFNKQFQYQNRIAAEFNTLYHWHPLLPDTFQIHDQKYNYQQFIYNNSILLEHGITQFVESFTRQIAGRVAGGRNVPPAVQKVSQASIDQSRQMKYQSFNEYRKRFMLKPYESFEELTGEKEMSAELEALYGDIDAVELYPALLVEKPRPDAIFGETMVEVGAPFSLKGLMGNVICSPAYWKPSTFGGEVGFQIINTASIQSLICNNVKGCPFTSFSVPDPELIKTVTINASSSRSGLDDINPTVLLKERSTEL
structure (smiles),measurement,setting,value
"COc1ccc(-c2cc(=O)c3c(OC)c(OC)c(OC)c(OC)c3o2)cc1OC [nobiletin, 5,6,7,8,3′,4′-hexamethoxyflavone]",inhibition of COX-2 (and its metabolite PGE2),[1],inhibiting
same,activity against hepatitis C virus,[2],significant activity
same,AMPK levels and activity,[3],increasing
same,inhibition of MMP-9,[4],inhibiting
same,inhibition of IL1-β,[5],significantly inhibiting
same,inhibition of TNF-α,[6],significantly inhibiting
same,inhibition of TLR2+TLR4,[7],significantly inhibiting
same,inhibition of chikungunya (CHIKV) infection,[8]; at viral entry as well as during translation/replication state,inhibit chikungunya (CHIKV) infection
same,cell survival of virally infected cells,[8]; [24],~90%
same,increase in survival of virally infected cells,[8]; [24],6 fold
same,increase in survival of virally infected cells,"[8]; lower concentration of nobiletin, cell survival without it <15%",4 fold
same,inhibition of MMP-2,[9],inhibiting
same,inhibition of MCP-1,[10],significantly inhibiting
same,leukocyte infiltration into inflamed tissue,[11],significantly reduces
same,inhibition of MMP-3,[12],inhibiting
same,relative bioavailability,[13],high relative bioavailability
same,tissue penetration,[13],high tissue penetration
same,platelet aggregation,[14],suppression of platelet aggregation
same,inhibition of IL-6,[15],significantly inhibiting
same,anti-viral activity of NK cells,[16],potentiating
same,inhibition of MMP-1,[17],inhibiting
same,inhibition of IL1-α,[18],significantly inhibiting
same,anti-viral activity against enterovirus 71,[19],direct anti-viral activity
same,lung function,[20],excellent ability to restore lung function
same,induced lung damage,[21],nearly eliminated lung damage
same,anti-obesity effects,[22],"weight loss, fat loss"
same,effect on TIMP-1,[23],upregulating
